Test results: patent publication US8883793B2, “Tubulin inhibitors and methods of using the same” (Development Center for Biotechnology, priority 2010, dated 2014)

Tests used:
A549 = assay: MTS assay, A549; format: cell-based; conditions: Homo sapiens, 72 h, read-out: IC50 from MTS assay
Description: (§1) MTS assay was performed in determining the growth inhibition of cancer cells. MTS ((3-(4,5-dimethylthiazol-2-yl)-5-(3-carboxymethoxyphenyl)-2-(4-sulfophenyl)-2H-tetrazolium)), in the presence of phenazine methosulfate (PMS) and reductases, produces a formazan product that has an absorbance maximum at 490-500 nm. MTS assays (and closely related MTT assay) are commonly used to measure cell viabilities or survivals.
(§2) Briefly, KB/Hela, NCI-H460, A375, Colo205, HCT-116, U937, MCF-7, MDA-MB-231, A549, H1975 cells were seeded into 96-well plate at 4000, 4000, 2000, 2000, 2000 cells/well. After 24 h for attachment, test compound was added into each well and incubated for 72 h. A total of 20 μl of MTS reaction reagent containing the MTS (Promega, Madison, Wis.) and PMS in a ratio of 20:1 was added into each well to react with dehydrogenase enzyme in survival cells. After 3 h, the absorbance at 490 nm was monitored using Emax precision microplate reader (Molecular Devices, Sunnyvale, Calif.).

KB cell = assay: MTS assay, growth inhibition of KB cells; format: cell-based; conditions: Homo sapiens, at 10 μM concentration, incubated for 72 h, read-out: Inhibition rate (%) (growth inhibition rate of MTS assay)
Summary of the method: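 KB cells were allowed 24 h to attach before a 72 h exposure to compound at 10 μM. Viability was measured by MTS/PMS reduction, with absorbance read at 490 nm after 3 h. Values are reported as percent growth inhibition.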

Colo205 = assay: MTS assay, Colo205; format: cell-based; conditions: Homo sapiens, COLO 205, 72 h, read-out: IC50 from MTS assay
Description: as §1, §2

MDA-MB-231 = assay: MTS assay, MDA-MB-231; format: cell-based; conditions: Homo sapiens, 72 h, read-out: IC50 from MTS assay
Description: as §1, §2

A375 = assay: MTS assay, A375; format: cell-based; conditions: Homo sapiens, A-375, 72 h, read-out: IC50 from MTS assay
Description: as §1, §2

H1975 = assay: MTS assay, H1975; format: cell-based; conditions: Homo sapiens, NCI-H1975, 72 h, read-out: IC50 from MTS assay
Description: as §1, §2

porcine brain tubulin = assay: Tubulin polymerization assay; format: biochemical; conditions: at 10 μM concentration
Description: In vitro tubulin polymerization assay was performed by using the Tubulin Polymerization Assay Kit (Cytoskeleton, Inc., Denver, Colo.) in a 96-well format, which used the polymerization of porcine brain tubulin in vitro in the presence of varying concentrations of the test compounds. Fluorescence measurements were obtained at 1-minute intervals over a 31-minute period. Fluorescent measurements were performed using excitation at 365 nm, and emission was measured at 440 nm using a Packard Fusion Alpha Microplate Analyzer. Data were analyzed as relative fluorescent units by GraphPad Prism 5 Demo.

U937 = assay: MTS assay, U937; format: cell-based; conditions: Homo sapiens, U-937, 72 h, read-out: IC50 from MTS assay
Description: as §1, §2

biotinylated tubulin = assay: Colchicine competitive-binding assay; conditions: at 10 μM concentration, 3H-colchicine; for Inhibition rate (%) (colchicine competitive-binding): right column pair of Table 7

SMILES	IC50 (A549) [µM]	inhibition at 10 µM (KB cell) [%]	IC50 (Colo205) [µM]	IC50 (MDA-MB-231) [µM]	IC50 (A375) [µM]	IC50 (H1975) [µM]	Inhibition rate (%) of tubulin polymerization (porcine brain tubulin) [%]	IC50 (U937) [µM]	binding rate (%) (colchicine competitive-binding) (biotinylated tubulin; left column pair of Table 7)	Inhibition rate (%) (colchicine competitive-binding) (biotinylated tubulin)
COc1ccc(Sc2cnc(NC(=O)CCc3cccnc3)s2)cc1 [Compound 70, N-[5-(4-Methoxy-phenylsulfanyl)-thiazol-2-yl]-3-pyridin-3-yl-propionamide]	0.058	78.5	0.0682	0.182	0.0346	0.141	59.6	0.0232	92.9	
Cc1ccc(CCC(=O)Nc2ncc(-c3ccc(N(C)C)cc3)cn2)o1 [Compound 106, N-[5-(4-Dimethylamino-phenyl)-pyrimidin-2-yl]-3-(5-methyl-furan-2-yl)-propionamide]		84.6					69.3			70.1
Cc1ccc(CCC(=O)Nc2ccc(-c3ccccc3)cn2)o1 [Compound 111, 3-(5-Methyl-furan-2-yl)-N-(5-phenyl-pyridin-2-yl)-propionamide]		65.1					72.7			96.4
Cc1ccc(CCC(=O)Nc2ccc(-c3ccc(F)cc3)cn2)o1 [Compound 112, N-[5-(4-Fluoro-phenyl)-pyridin-2-yl]-3-(5-methyl-furan-2-yl)-propionamide]		96.2					76.9			87.8
Cc1ccc(CCC(=O)Nc2ncc(-c3ccccc3)cc2C)o1 [Compound 118, 3-(5-Methyl-furan-2-yl)-N-(3-methyl-5-phenyl-pyridin-2-yl)-propionamide]		93					81.4			99.7
Cc1ccc(CCC(=O)Nc2ncc(-c3ccc(N(C)C)cc3)cc2C)o1 [Compound 120, N-[5-(4-Dimethylamino-phenyl)-3-methyl-pyridin-2-yl]-3-(5-methyl-furan-2-yl)-propionamide]		85.9					51.8			97.5
Cc1ccc(CCC(=O)Nc2ccc(Br)cn2)o1 [Compound 123, N-(5-Bromo-pyridin-2-yl)-3-(5-methyl-furan-2-yl)-propionamide]		95.8					85.6			78.4
Cc1ccc(CCC(=O)Nc2ncc(Br)cc2C)o1 [Compound 124, N-(5-Bromo-3-methyl-pyridin-2-yl)-3-(5-methyl-furan-2-yl)-propionamide]		93.3					84.9			74.8
